Consider two molecules from article PMC5713897 (Investigative Ophthalmology & Visual Science, 2017).

≈ marks a conversion by molar mass, not a printed value. Where two headings read alike, the source gives them in different places.

The conditions of data set [1]: cited from earlier work.
Data set [2] in a line: Phase solubility study of ilomastat with 2-hydroxypropyl-β-cyclodextrin (HPLC). Type of data set: physicochemical. How it is done:
The mixture was left to stir overnight.
A flow rate of 1 mL/min was used with 0.1% trifluoroacetic acid in water and acetonitrile as eluents A and B, respectively, with a linear gradient from 80% A to 70% B in 17 minutes. The detection wavelength was 280 nm.
The mixture was left to stir overnight. Benzalkonium chloride (BAC) (0.8 mg) was then added to the mixture, and the mixture was filtered (0.22 μm PES).

The subject of data set [3] is Human Tenon fibroblast cells (HTFs).
Description: Human Tenon fibroblast cells (HTFs) were maintained in fibroblast culture medium composed of Dulbecco's modified Eagle's medium (DMEM) supplemented with 10% (vol/vol) fetal bovine serum (FBS), 2 mM L-glutamine, 100 IU/mL penicillin, and 100 g/mL streptomycin (all from Gibco Life Technologies, Paisley, Scotland, UK) at 37°C with 5% (vol/vol) CO2 in air. The medium was changed every 3 to 4 days until cells reached confluence. The cells were passaged at a ratio of 1:4. Cultures were used between passages 3 and 10 for the gel contraction experiments.[33]
HTF cells (7 × 10^4 cells/mL) were seeded in collagen type-1 lattice (150 μL) in a Matteck dish. […] The drug solutions were added to the lattice (2 mL) at each individual concentration and incubated at 37°C. The gels were imaged daily from day 0 to day 7, and the percent contraction was calculated based on the decrease in gel area using ImageJ software (http://imagej.nih.gov/ij/; provided in the public domain by the National Institutes of Health, Bethesda, MD, USA). […] Each formulation was tested in triplicate.
The conditions of data set [4]: weak hydroxamic acid; cited from earlier work.

With `CC(O)COC[C@H]1O[C@@H]2O[C@H]3[C@H](O)[C@@H](O)[C@@H](O[C@H]4[C@H](O)[C@@H](O)[C@@H](O[C@H]5[C@H](O)[C@@H](O)[C@@H](O[C@H]6[C@H](O)[C@@H](O)[C@@H](O[C@H]7[C@H](O)[C@@H](O)[C@@H](O[C@H]8[C@H](O)[C@@H](O)[C@@H](O[C@H]1[C@H](O)[C@H]2O)O[C@@H]8COCC(C)O)O[C@@H]7COCC(C)O)O[C@@H]6COCC(C)O)O[C@@H]5COCC(C)O)O[C@@H]4COCC(C)O)O[C@@H]3COCC(C)O` (stereo partly drawn) [2-Hydroxypropyl-β-cyclodextrin], in data set [1] (water), the water solubility is 450 mg/mL (≈ 292000 µM).

A word on the solubility: it is the dissolved amount per volume that the medium holds. In general, pKa refers to the pH at which an ionisable group is half protonated. On to `CNC(=O)[C@H](Cc1c[nH]c2ccccc12)NC(=O)[C@@H](CC(=O)NO)CC(C)C` [ilomastat], for which the solubility in data set [2] (PBS, pH 7.4, read-out: aqueous solubility in PBS (pH 7.4)) is 0.16 mg/mL (≈ 412 µM); in data set [2] (water, read-out: aqueous solubility in water), 0.14 mg/mL (≈ 360 µM). For the same molecule, the “inhibition of collagen gel contraction (in words)” value in data set [3] (7-day incubation) is listed as “significantly inhibited collagen gel contraction”. Also, the gel contraction in data set [3] (day 7, 0.01 μM ilomastat, HTFs in collagen, n = 3) was 51.79% ± 2.05. Also, in data set [1] (balanced salt solution, 35.5°C), the “solubility in balanced salt solution” value is 0.161 mg/mL. Moreover, in data set [4], the pKa was 8.9.
